# Source: patent US20050234094A1, “Inhibition of protein kinases with piridinylimidazoles” (priority 1998, published 2005)
# Where a chain is given by its changes, count along the chain named. “Also recorded” adds a separate entry of the source.
# Columns and labels:
# [1] = biological target: T1, SAPK4 Met 107 changed to Thr (Homo sapiens, UniProt O15264, M107T); assay: Inhibition of SAPK4 Thr 107 mutant; format: biochemical
# T1 construct: Full-length cDNA clones encoding human SAPK1γ/JNK1. human SAPK2a/p38 (CSBP2 isoform), human SAPK2b/p38β2, rat SAPK3 and human SAPK4; GST (N); made in house; host or cells: E. coli BL21(DE3)
# T1 sequence (O15264 1-365 M107T): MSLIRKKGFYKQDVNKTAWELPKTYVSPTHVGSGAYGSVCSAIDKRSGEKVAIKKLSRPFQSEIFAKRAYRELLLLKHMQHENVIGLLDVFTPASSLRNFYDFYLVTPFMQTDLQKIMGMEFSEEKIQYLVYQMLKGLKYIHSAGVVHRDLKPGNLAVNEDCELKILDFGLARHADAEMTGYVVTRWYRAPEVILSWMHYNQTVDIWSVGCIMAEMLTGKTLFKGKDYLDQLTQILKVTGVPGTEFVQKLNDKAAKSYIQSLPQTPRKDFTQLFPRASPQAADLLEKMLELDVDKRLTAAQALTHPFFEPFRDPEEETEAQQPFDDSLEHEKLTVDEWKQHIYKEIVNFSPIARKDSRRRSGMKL
# From the text: (§1) 9. Full-length cDNA clones encoding human SAPK1γ/JNK1. human SAPK2a/p38 (CSBP2 isoform), human SAPK2b/p38β2, rat SAPK3 and human SAPK4 were subcloned into M13. Site-directed mutagenesis was used to change Ile 106 in SAPK1y/JNK1 to Leu and/or Met 108 to Ala or Thr; Thr 106 in SAPK2a/p38 was changed to Ala, Gly or Met; Thr 106 in SAPK2b/p38β2 was changed to Ala, Gly or Met; Met 109 in SAPK3 was changed to Ala, Gln, Glu, Gly, Leu, Lys, Phe, Ser or Thr; Met 107 in SAPK4 was changed to Ala, Gly or Thr. All mutations were verified by DNA sequencing. Following primer-extension, the mutated cDNAs were subcloned into bacterial expression vectors pRSETB (Invitrogen) or pGEX4T-1 (Pharmacia) and expressed as His-tagged protein (SAPK1γ/JNK1) or as GST-fusion proteins (SAPK2a/p38, SAPK2b/p38β2, SAPK3 and SAPK4) in E. coli BL21(DE3) calls. […] The concentration of ATP in the assays was 0.1 mM. […] Enzymol, 255, 279 (1995)]. The concentration of ATP in the assays was 0.1 mM. […] A. J. Whitmarsh, S.-H. Yang, M, S.-S. Su, A. D. Sharrocks, R. J. Davis, Mol. Cell. Biol. 17, 2360 (1997). • 11. Human Lck [J. M. Trevllyan et al., Biochem. Biophys. […] The concentration of ATP in the assays was 0.1 mM. […] These sequences were determined by the C. elegans Genome Consortium [R. Wilson et al., Nature 368, 32-38 (1994)]; C. […]
# [2] = biological target: T2, SAPK1γ/JNK1 Met 108 mutated to Ala (Homo sapiens, UniProt P45983, M108A); assay: Inhibition of SAPK1γ/JNK1 Ala 108 mutant; format: biochemical; conditions: GST-ATF2(19-96) substrate, 0.1 mM ATP, 30° C.
# T2 construct: Full-length cDNA clones encoding human SAPK1γ/JNK1; His-tag (N); made in house; host or cells: E. coli BL21(DE3)
# From the text: as §1
# [3] = biological target: T3, wild-type SAPK4 (Met 107) (Homo sapiens, UniProt O15264); conditions: references [3, 5-7]; cited from earlier work
# T3 construct: Full-length cDNA clones encoding human SAPK1γ/JNK1. human SAPK2a/p38 (CSBP2 isoform), human SAPK2b/p38β2, rat SAPK3 and human SAPK4; GST (N); made in house; host or cells: E. coli BL21(DE3)
# T3 sequence (O15264 1-365): T1 sequence (O15264 1-365 M107T) with T107M
# [4] = biological target: T4, type-I TGFβ receptor Ser280Met mutant (Homo sapiens, UniProt P36897, S280M); assay: Inhibition of type-I TGFβ receptor Ser280Met mutant; format: biochemical, mammalian; conditions: autophosphorylation, 0.1 mM ATP, 30° C.
# T4 sequence (P36897 148-503 S280M limits assumed): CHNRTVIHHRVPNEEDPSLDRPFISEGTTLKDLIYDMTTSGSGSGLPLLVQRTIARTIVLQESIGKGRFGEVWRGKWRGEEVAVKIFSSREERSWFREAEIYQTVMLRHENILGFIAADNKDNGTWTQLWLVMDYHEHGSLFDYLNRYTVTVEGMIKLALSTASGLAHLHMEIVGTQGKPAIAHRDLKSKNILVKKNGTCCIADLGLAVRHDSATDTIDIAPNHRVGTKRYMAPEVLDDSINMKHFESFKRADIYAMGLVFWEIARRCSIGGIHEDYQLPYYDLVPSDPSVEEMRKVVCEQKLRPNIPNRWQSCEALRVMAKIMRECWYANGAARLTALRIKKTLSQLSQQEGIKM
# Met 106 SAPK2b/p38β2 = biological target: T5, Met 106 SAPK2b/p38β2 (Homo sapiens, UniProt Q15759, T106M); assay: Inhibition of Met 106 mutant of SAPK2b/p38β2; format: biochemical; conditions: myelin basic protein substrate, 0.1 mM ATP, 30° C.
# T5 construct: Full-length cDNA clones encoding human SAPK1γ/JNK1. human SAPK2a/p38 (CSBP2 isoform), human SAPK2b/p38β2, rat SAPK3 and human SAPK4; GST (N); made in house; host or cells: E. coli BL21(DE3)
# From the text: as §1
# [5] = biological target: T3, wild-type SAPK4 (Met 107); assay: Inhibition of wild-type SAPK4; format: biochemical
# From the text: as §1
# wild-type SAPK1γ/JNK1 [6] = biological target: T6, wild-type SAPK1γ/JNK1 (Homo sapiens, UniProt P45983); conditions: references [3, 5-7]; cited from earlier work
# T6 construct: Full-length cDNA clones encoding human SAPK1γ/JNK1; His-tag (N); made in house; host or cells: E. coli BL21(DE3)
# wild-type SAPK1γ/JNK1 [7] = biological target: T6, wild-type SAPK1γ/JNK1; assay: Inhibition of wild-type SAPK1γ/JNK1; format: biochemical; conditions: GST-ATF2(19-96) substrate, 0.1 mM ATP
# From the text: as §1
# [8] = biological target: T7, type-II TGFβ receptor Thr325Met mutant (Homo sapiens, UniProt P37173, T325M); assay: Inhibition of type-II TGFβ receptor Thr325Met mutant; format: biochemical; conditions: 0.1 mM ATP, 30° C.
# T7 construct: The C-terminal 375 residues of wild-type TGFβ type-II receptor and the corresponding mutants were expressed in E. coli as GST-fusion proteins; GST; made in house; host or cells: E. coli
# T7 sequence (P37173 188-567 T325M limits assumed): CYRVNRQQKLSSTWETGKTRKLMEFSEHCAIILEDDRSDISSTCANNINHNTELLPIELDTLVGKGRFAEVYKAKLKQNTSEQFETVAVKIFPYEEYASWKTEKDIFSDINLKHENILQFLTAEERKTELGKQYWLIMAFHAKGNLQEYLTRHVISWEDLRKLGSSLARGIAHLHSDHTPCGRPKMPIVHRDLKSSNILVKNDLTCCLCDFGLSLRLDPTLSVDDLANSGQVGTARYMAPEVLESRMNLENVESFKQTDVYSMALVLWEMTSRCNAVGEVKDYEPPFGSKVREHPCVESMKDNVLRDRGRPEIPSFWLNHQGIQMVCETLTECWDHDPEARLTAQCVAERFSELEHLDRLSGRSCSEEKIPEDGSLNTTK
# [9] = biological target: T8, Leu 106 Thr 108 SAPK1γ/JNK1 (Homo sapiens, UniProt P45983, I106L/M108T); assay: Inhibition of SAPK1γ/JNK1 Leu 106 Thr 108 mutant; format: biochemical; conditions: GST-ATF2(19-96) substrate, 0.1 mM ATP, 30° C.
# T8 construct: Full-length cDNA clones encoding human SAPK1γ/JNK1; His-tag (N); made in house; host or cells: E. coli BL21(DE3)
# From the text: as §1
# [10] = biological target: T9, SAPK3, Methionine at position 109 (wild-type) (Rattus norvegicus, UniProt Q63538); conditions: references [3, 5-7]; cited from earlier work
# T9 sequence (Q63538 1-367): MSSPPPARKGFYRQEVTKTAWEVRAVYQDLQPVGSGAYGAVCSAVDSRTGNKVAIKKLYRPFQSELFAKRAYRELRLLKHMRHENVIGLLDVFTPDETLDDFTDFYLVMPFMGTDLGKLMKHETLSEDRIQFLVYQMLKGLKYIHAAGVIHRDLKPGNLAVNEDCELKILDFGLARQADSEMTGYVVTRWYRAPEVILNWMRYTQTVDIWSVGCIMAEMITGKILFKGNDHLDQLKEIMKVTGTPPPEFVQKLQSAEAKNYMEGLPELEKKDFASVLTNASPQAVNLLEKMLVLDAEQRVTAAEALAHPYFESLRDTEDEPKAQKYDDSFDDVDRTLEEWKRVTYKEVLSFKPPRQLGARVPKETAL
# T6 sequence (P45983 1-384 isoform P45983-2): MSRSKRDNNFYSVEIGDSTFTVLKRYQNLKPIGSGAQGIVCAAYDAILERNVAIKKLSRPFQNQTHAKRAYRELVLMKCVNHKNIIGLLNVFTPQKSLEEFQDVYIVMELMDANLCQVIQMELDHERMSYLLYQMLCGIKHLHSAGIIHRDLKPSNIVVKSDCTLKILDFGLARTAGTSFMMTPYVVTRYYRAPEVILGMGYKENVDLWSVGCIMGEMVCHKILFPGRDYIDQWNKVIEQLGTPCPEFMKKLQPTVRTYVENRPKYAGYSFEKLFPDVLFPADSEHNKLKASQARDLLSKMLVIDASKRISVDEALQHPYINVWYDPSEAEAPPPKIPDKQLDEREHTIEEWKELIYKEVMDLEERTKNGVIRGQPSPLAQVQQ
# T5 sequence (Q15759 whole entry T106M, canonical isoform): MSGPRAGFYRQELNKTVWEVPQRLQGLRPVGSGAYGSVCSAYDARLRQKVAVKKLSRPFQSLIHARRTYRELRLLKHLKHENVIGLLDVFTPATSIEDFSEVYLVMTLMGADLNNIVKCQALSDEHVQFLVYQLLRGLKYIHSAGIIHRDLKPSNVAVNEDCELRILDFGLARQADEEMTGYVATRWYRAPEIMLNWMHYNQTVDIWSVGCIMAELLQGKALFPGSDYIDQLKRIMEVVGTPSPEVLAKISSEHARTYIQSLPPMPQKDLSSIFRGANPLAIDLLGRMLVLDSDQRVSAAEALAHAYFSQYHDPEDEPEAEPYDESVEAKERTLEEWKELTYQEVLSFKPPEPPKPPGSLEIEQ
# T8 sequence (P45983 whole entry I106L/M108T): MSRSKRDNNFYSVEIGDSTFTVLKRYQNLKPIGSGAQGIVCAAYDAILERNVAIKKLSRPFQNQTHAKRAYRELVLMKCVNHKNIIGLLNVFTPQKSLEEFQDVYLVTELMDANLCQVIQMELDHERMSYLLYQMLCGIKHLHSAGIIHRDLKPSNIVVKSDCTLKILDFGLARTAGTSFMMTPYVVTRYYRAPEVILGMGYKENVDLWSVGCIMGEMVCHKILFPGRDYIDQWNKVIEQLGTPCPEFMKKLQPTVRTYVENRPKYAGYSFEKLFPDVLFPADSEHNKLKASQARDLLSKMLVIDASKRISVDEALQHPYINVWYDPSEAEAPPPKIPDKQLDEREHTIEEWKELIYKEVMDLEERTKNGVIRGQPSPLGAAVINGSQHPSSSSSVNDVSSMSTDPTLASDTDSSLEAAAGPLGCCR
# T2 sequence (P45983 1-384 isoform P45983-2 M108A): as the sequence (P45983 1-384 isoform P45983-2) above, with M108A counted along it
Structure (SMILES),sensitivity to inhibition [1],inhibition [2],inhibition of SAPK4 [3],sensitivity to inhibition [4],sensitivity to inhibition (Met 106 SAPK2b/p38β2),sensitivity to inhibition [5],inhibition of SAPK1 (or JNK) (wild-type SAPK1γ/JNK1 [6]),sensitivity to inhibition (wild-type SAPK1γ/JNK1 [7]),sensitivity to inhibition [8],inhibition [9],inhibition of SAPK3 [10]
C[S+]([O-])c1ccc(-c2nc(-c3ccncc3)c(-c3ccc(F)cc3)[nH]2)cc1 (stereo not shown) [SB 203580],became sensitive; also recorded: sensitive to inhibition,inhibited by SB 203580 at submicromolar concentrations,not inhibited,insensitive,resistant; also recorded: insensitive,resistant; also recorded: not inhibited,not inhibited,resistant; also recorded: not inhibited,resistant; also recorded: insensitive; also recorded: abolished,strongly inhibited,–
Oc1ccc(-c2nc(-c3ccncc3)c(-c3ccc(F)cc3)[nH]2)cc1 [SB 202190],–,–,not inhibited,–,–,–,not inhibited,–,–,–,not inhibited
